Experimental data taken from US9718790B2, “Triazine derivative and pharmaceutical composition having an analgesic activity comprising the same” (SHIONOGI & CO., LTD., priority 2010, dated 2017).

Each compound was assayed against human P2X3 receptor (Homo sapiens (Human), UniProt P56373) (assay: Evaluation of human P2X3 receptor inhibitory activity (Fluo-3 calcium fluorescence, FDSS 3000, ATP stimulation)). Conditions: C6BU-1 cells stably expressing human P2X3 receptor.
Format: cell-based
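Note: stimulus was 50 nM ATP with fluorescence followed for 3 min, and the response per well was peak post-ATP fluorescence divided by the reading at measurement start.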

Sequence of human P2X3 receptor (P56373 whole entry): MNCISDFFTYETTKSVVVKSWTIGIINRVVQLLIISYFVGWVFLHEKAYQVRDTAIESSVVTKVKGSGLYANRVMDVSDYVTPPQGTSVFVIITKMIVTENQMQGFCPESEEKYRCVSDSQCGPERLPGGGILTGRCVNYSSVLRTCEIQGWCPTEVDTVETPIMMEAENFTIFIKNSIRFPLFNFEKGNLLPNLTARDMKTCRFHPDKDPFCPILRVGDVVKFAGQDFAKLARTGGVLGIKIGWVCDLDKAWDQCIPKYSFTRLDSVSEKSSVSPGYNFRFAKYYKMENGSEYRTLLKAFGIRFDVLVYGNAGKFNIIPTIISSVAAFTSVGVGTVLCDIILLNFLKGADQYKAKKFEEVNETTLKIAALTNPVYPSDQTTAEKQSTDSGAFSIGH

Row | Compound | IC50
1 | CCn1c(=O)[nH]/c(=N\c2ccc(Oc3ccc(F)c(C(=O)O)c3)cc2)n(Cc2ccc(Cl)cc2)c1=O [Compound I-2066] | 23 nM
2 | C[C@@H](Cn1c(=O)[nH]/c(=N\c2cnc(OC3CCC3)c(Cl)c2)n(Cc2ccc(Cl)cc2)c1=O)C(=O)O [Compound I-1411] | 58 nM
3 | COc1ccc(/N=c2\[nH]c(=O)n(C[C@H](C)C(=O)O)c(=O)n2Cc2ccc(Cl)cc2)cc1C(F)(F)F [Compound I-0797] | 701 nM
4 | Cc1ccc(Oc2ccc(/N=c3\[nH]c(=O)n(CC(=O)O)c(=O)n3Cc3ccc(Cl)cc3)cc2)cn1 [Compound I-1934] | 198 nM
5 | Cc1cc(/N=c2\[nH]c(=O)n(CC[C@H](N)C(=O)O)c(=O)n2Cc2ccc(Cl)cc2)ccc1OC(C)C [Compound I-0736, (S)-1-(4-chlorobenzyl)-3-(3-amino-3-hydroxycarbonylpropyl)-6-(3-mehyl-4-isopropoxyphenylimino)-1,3,5-triazinane-2,4-dion] | 131 nM
6 | CCOC(=O)CCn1c(=O)[nH]/c(=N\c2ccc(OC(C)C)c(C3CC3)c2)n(Cc2ccc(C)cc2)c1=O [Compound I-1300] | 18 nM
7 | CCOC(=O)OC(=O)c1ccc(Oc2ccc(/N=c3\[nH]c(=O)n(CC)c(=O)n3Cc3ccc(C)cc3)cc2)cc1 [Compound I-2068] | 16 nM
8 | Cc1ccc(Cn2c(=O)n(C[C@H](C)C(=O)O)c(=O)[nH]/c2=N\c2ccc(OC(C)C)c(C)c2)cc1 [Compound I-0680] | 26 nM
9 | CCC(Cn1c(=O)[nH]/c(=N\c2ccc(OC(C)C)c(C)c2)n(Cc2ccc(Cl)cc2)c1=O)C(=O)OC(C)(C)C (stereo not drawn) [Compound I-0701] | 35 nM
10 | CCn1c(=O)[nH]/c(=N\c2ccc(Oc3ccnc(C(=O)O)c3)cc2)n(CC2CCC3(CC2)CC3)c1=O [Compound I-2177] | 14 nM
11 | CCn1c(=O)[nH]/c(=N\c2ccc(Oc3ccc(C(=O)OC)c(F)c3)cc2)n(Cc2ccc(Cl)cc2)c1=O [Compound I-2218] | 3 nM
12 | COC(=O)c1cccc(Cn2c(=O)[nH]/c(=N\c3ccc(OC(C)C)c(C)c3)n(Cc3ccc(Cl)cc3)c2=O)n1 [Compound I-0781] | 9 nM
13 | CC(C)Oc1ccc(/N=c2\[nH]c(=O)n(C[C@H](C)C(=O)O)c(=O)n2Cc2ccc(F)cc2)cc1Cl [Compound I-0630] | 30 nM
14 | CCn1c(=O)[nH]/c(=N\c2ccc(Oc3ccnc(C(=O)OC)c3)cc2)n(CC2CCC3(CC2)CC3)c1=O [Compound I-2174] | 6 nM
15 | Cc1ccc(Cn2c(=O)n([C@H](C)[C@H](C)C(=O)O)c(=O)[nH]/c2=N\c2ccc(OC(C)C)c(Cl)c2)cc1 [Compound I-1337] | 14 nM

Same assay, conditions: C6BU-1 cells stably expressing human P2X3 receptor, Fluo-3 fluorescence, FDSS 3000

Row | Compound | IC50
16 | CCc1ccc(Cn2c(=O)n(C[C@H](C)C(=O)O)c(=O)[nH]/c2=N\c2ccc(OC(C)C)cc2)cc1 [Compound I-1140] | 44 nM
17 | CCOC(=O)CCn1c(=O)[nH]/c(=N\c2ccc3nc(C4CC4)sc3c2)n(Cc2ccc(C)cc2)c1=O [Compound I-1559] | 5 nM
18 | CC(C)c1nc2ccc(/N=c3\[nH]c(=O)n([C@@H](C)[C@@H](C)C(=O)O)c(=O)n3Cc3ccc(Cl)cc3)cc2s1 [Compound I-1585] | 14 nM
19 | CCOC(=O)CCn1c(=O)[nH]/c(=N\c2ccc(OC[C@@H](C)CC)cc2)n(Cc2ccc(C)cc2)c1=O [Compound I-1051] | 100 nM
20 | C[C@@H](Cn1c(=O)[nH]/c(=N\c2ccc(O[C@H](C)C(F)(F)F)cc2)n(Cc2ccc(Cl)cc2)c1=O)C(=O)O [Compound I-0932] | 21 nM
21 | CCn1c(=O)[nH]/c(=N\c2ccc(Oc3cccc(CC(=O)OC)c3)cc2)n(Cc2ccc(Cl)cc2)c1=O [Compound I-1889] | 23 nM
22 | COC(=O)c1cc(/N=c2\[nH]c(=O)n(CCC(=O)O)c(=O)n2Cc2ccc(C)cc2)cn1C [Compound I-1879] | 128 nM
23 | COC(=O)[C@@H](C)Cn1c(=O)[nH]/c(=N\c2ccc(Oc3ccccc3)cc2)n(Cc2ccc(Cl)cc2)c1=O [Compound I-0989, (S)-1-(4-chlorobenzyl)-3-(2-methoxycarbonylpropyl)-6-(4-phenoxy-phenylimino)-1,3,5-triazinane-2,4-dion] | 68 nM
24 | Cc1ccc(Cn2c(=O)n(CCC(=O)O)c(=O)[nH]/c2=N\c2ccc(OCC3CC3)c(Cl)c2)cc1 [Compound I-0968] | 107 nM
25 | COC(=O)CCn1c(=O)[nH]/c(=N\c2cn(C)nc2C(=O)NC(C)C)n(Cc2ccc(C)cc2)c1=O [Compound I-1804] | 162 nM
26 | O=C(O)c1cc(Oc2ccc(/N=c3\[nH]c(=O)[nH]c(=O)n3Cc3ccc(Cl)cc3)cc2)ccn1 [Compound I-1883] | 7 nM
27 | CCc1nc2ccc(/N=c3\[nH]c(=O)n(CCC(=O)NCCO)c(=O)n3Cc3ccc(Cl)cc3)cc2s1 [Compound I-1739] | 7 nM
28 | Cc1ccc(Cn2c(=O)n(C[C@H](C)CO)c(=O)[nH]/c2=N\c2ccc(CC(C)C)c(Cl)c2)cc1 [Compound I-1579] | 7 nM
29 | CCCc1ccc(Cn2c(=O)n(C[C@H](C)C(=O)OC)c(=O)[nH]/c2=N\c2ccc(OC(C)C)cc2)cc1 [Compound I-1144] | 764 nM

Same assay, conditions: human P2X3 receptor, Test Example 1

Row | Compound | IC50
30 | CC(C)Oc1ccc(/N=c2\[nH]c(=O)n(CC(C)(C)CC(=O)O)c(=O)n2Cc2ccc(Cl)cc2)cc1F [Compound I-0845] | 24 nM
31 | CCn1c(=O)[nH]/c(=N\c2ccc(Oc3ccc(C(N)=O)cc3)nc2)n(Cc2ccc(Cl)cc2)c1=O [Compound I-2620] | 110 nM
32 | COC(=O)c1cccc(Oc2ccc(/N=c3\[nH]c(=O)n(C)c(=O)n3Cc3ccc(C)cc3)cc2)n1 [Compound I-2266] | 44 nM
33 | CCn1c(=O)[nH]/c(=N\c2ccc(Oc3cncc(C(=O)O)n3)cc2)n(Cc2ccc(C)cc2)c1=O [Compound I-2474] | 7 nM
34 | Cc1nc2ccc(/N=c3\[nH]c(=O)n(CC4COC(C)(C)OC4)c(=O)n3Cc3ccc(Cl)cc3)cc2s1 [Compound I-1542] | 4 nM
35 | COCCn1c(=O)[nH]/c(=N\c2ccc(Oc3ccnc(C(=O)OC)c3)cc2)n(Cc2ccc(Cl)cc2)c1=O [Compound I-2536] | 5 nM
36 | Cn1c(=O)[nH]/c(=N\c2ccc(Oc3cccc(/C=C/C(=O)O)c3)cc2)n(Cc2ccc(Cl)cc2)c1=O [Compound I-2364] | 8 nM
37 | Cc1sc(Oc2ccc(/N=c3\[nH]c(=O)n(C)c(=O)n3Cc3ccc(Cl)cc3)cc2)nc1C(=O)O [Compound I-2451] | 25 nM
38 | Cc1nsc(Oc2ccc(/N=c3\[nH]c(=O)n(CC(=O)O)c(=O)n3Cc3ccc(Cl)cc3)cc2)n1 [Compound I-2579] | 71 nM
39 | COc1ccc(CNc2nc(=O)n(Cc3ccc(Cl)cc3)/c(=N/c3ccc(OC(C)C)cc3)[nH]2)c(OC)c1 [Compound I-2252] | 769 nM
40 | COC(=O)CCn1c(=O)[nH]/c(=N\c2ccc(Oc3cccc(C(N)=O)n3)cc2)n(Cc2ccc(C)cc2)c1=O [Compound I-2682] | 2 nM
41 | CCn1c(=O)[nH]/c(=N\c2ccc3nc(OCC(=O)OC)sc3c2)n(Cc2ccc(Cl)cc2)c1=O [Compound I-2324] | 115 nM
42 | C[C@H](C(N)=O)n1c(=O)[nH]/c(=N\c2ccc(Oc3ccon3)cc2)n(Cc2ccc(Cl)cc2)c1=O [Compound I-2500] | 67 nM
43 | CCOC(=O)CNc1cc(Oc2ccc(/N=c3\[nH]c(=O)n(CC)c(=O)n3Cc3ccc(Cl)cc3)cc2)ccn1 [Compound I-2549] | 12 nM
44 | NC(=O)CCn1c(=O)[nH]/c(=N\c2ccc(Oc3cccc(F)n3)cc2)n(Cc2ccc(Cl)cc2)c1=O [Compound I-2654] | 9 nM
45 | COC(=O)c1cncc(Oc2ccc(/N=c3\[nH]c(=O)n(C4COC4)c(=O)n3Cc3ccc(Cl)cc3)cc2)c1 [Compound I-2332] | 218 nM
